From patent publication US20260272889A1, “COGNITIVE FUNCTION-IMPROVING AGENT AND PHARMACEUTICAL COMPOSITION FOR TREATING OR PREVENTING COGNITIVE DYSFUNCTION” (TOHOKU UNIVERSITY, priority 2022, published 2026)

Columns and labels:
[1] = tested on: schizophrenic model (MK-801) mice; test: Novel object recognition test (NORT), MK-801 schizophrenic model, Example 2; format: in vivo, C57BL/6J mice
Experimental: (§1) Inbred C57BL/6J (B6J) mice were purchased from Charles River Laboratories Japan, Inc. (Kanagawa, Japan). The mice were housed four by four in standard cages and reared on a 12-hour light/dark cycle (lights on at 8:00 and off at 20:00) in a room where temperature and humidity were controlled. The mice had free access to standard laboratory chow MF (ORIENTAL YEAST Co., Ltd., Tokyo, Japan) and water. No special environmental enrichment was provided in the home cage. Behavioral testing was performed using males from 10:00 to 18:00.
(§2) MK-801 (FUJIFILM Wako Pure Chemical Corporation, Osaka, Japan) was diluted with physiological saline to a concentration of 1 mg/ml to prepare a stock solution, which was stored at −80° C. The MK-801 stock solution (1 mg/ml) was then further diluted with physiological saline to 20 μg/ml and stored at −20° C. as a solution for administration. The MK-801 administration solution (20 μg/ml) was thawed on the day of administration and used for administration to mice. The MK-801 administration solution (20 μg/ml) was used within one week after freezing. MK-801 is an antagonist of an NMDA (glutamatergic N-methyl-D-aspartate) receptor. Chronic administration of MK-801 to mice causes a decrease in spine density and abnormal behavior similar to schizophrenia in mice. Mice to which MK-801 was chronically administered were used as a disease model of schizophrenia. Mice to which physiological saline was administered instead of MK-801 were used as a healthy model.
(§3) Pemafibrate (Toronto Research Chemicals, Tronto, Canada) was diluted with DMSO to a concentration of 30 mg/ml and stored as a stock solution at −80° C. On the day of administration, the pemafibrate stock solution (30 mg/ml) was diluted with corn oil (Sigma-Aldrich, USA) to a concentration of 0.1 mg/ml and used for administration to mice. As a control, a DMSO solution prepared by diluting DMSO in corn oil was used for administration to mice (DMSO:corn oil=1:300).
(§4) MK-801 (0.2 mg/kg/day) or physiological saline was intraperitoneally administered to 6-week-old C57BL/6J mice (males) once a day for 2 weeks. […]

[2] = tested on: schizophrenic model (MK-801) mice; test: Spine density analysis of prefrontal cortex pyramidal cells, Example 2; format: in vivo, C57BL/6J mice
Experimental: as §1, §2, §3, §4

[3] = tested on: schizophrenic model (MK-801) mice; test: Spine density analysis, examination of therapeutic method, Example 3; format: in vivo, C57BL/6J mice
Experimental: (§5) Animals and reagents the same as in Example 2 were used.
(§6) MK-801 (0.2 mg/kg/day) or physiological saline was intraperitoneally administered to 6-week-old C57BL/6J mice (males) once a day for 2 weeks. Mice to which MK-801 was administered and mice to which physiological saline was administered were each divided into two groups, to which pemafibrate (0.3 mg/kg/day) or solvent (DMSO solution) was orally administered once a day for one week.
(§7) Sampling for spine density analysis was performed after completion of NORT. Spine density analysis was performed using a group of 6 mice. Spine density analysis was performed in a manner similar to that in Example 2.
(§8) In the examination of the therapeutic method, a schizophrenic model in which MK-801 was administered to 6-week-old mice for 2 weeks was used (see upper parts in FIGS. 9 and 10). In the healthy model, physiological saline (saline) was administered instead of MK-801.

[4] = tested on: schizophrenic model (MK-801) mice; test: Spine density analysis, examination of prophylaxis, Example 3; format: in vivo, C57BL/6J mice; settings: FIG. 12
Experimental: as §5
(§9) Examination of prophylaxis: Pemafibrate (0.3 mg/kg/day) or solvent (DMSO solution) was orally administered to 6-week-old C57BL/6J mice (males) once a day for 2 weeks. Mice to which pemafibrate was administered and mice to which DMSO was administered were each divided into two groups, to which MK-801 (0.2 mg/kg/day) or physiological saline was intraperitoneally administered once a day for two weeks.
as §7
(§10) In the examination of the prophylaxis, pemafibrate was administered to 6-week-old mice for 2 weeks, and then MK-801 was administered thereto for 2 weeks (see upper parts in FIG. 11 and FIG. 12). In the healthy model, physiological saline (saline) was administered instead of MK-801.

[5] = tested on: schizophrenic model (MK-801) mice; test: NORT, examination of prophylaxis, Example 3; format: in vivo, C57BL/6J mice; settings: FIG. 11
Experimental: as §5, §9
(§11) NORT was performed using a group of 12 mice. NORT was performed in a manner similar to that in Example 1.
as §10

[6] = tested on: schizophrenic model (MK-801) mice; test: NORT, examination of therapeutic method, Example 3; format: in vivo, C57BL/6J mice; settings: FIG. 9
Experimental: as §5, §6, §11, §8

[7] = tested on: mouse microglial cell line MG6; test: qRT-PCR of cytokine expression in microglial cell line MG6 (Example 1); format: cell-based; settings: MG6 cells, 0.03 μM or 0.1 μM, 24 hours, qRT-PCR normalized with Gapdh
Experimental: A mouse microglial cell line MG6 was used for experiments. MG6 was seeded on a 12-well plate at 5×10^4 cells/well using a DMEM (high glucose) medium containing 10% of FBS, 10 μg/ml of insulin, and 0.1 mM of 2-mercaptoethanol. The seeded MG6 was cultured in an incubator at 37° C. and a CO2 concentration of 5%. After 24 hours from the start of culture, drugs were added as follows. First, pemafibrate as the PPARα agonist was diluted with DMEM (high glucose) medium to have a final concentration of 0.03 μM or 0.1 μM using dimethylsulfoxide (DMSO) as a solvent. Then, the total amount of the medium of the well in which MG6 was seeded was replaced with the medium containing 0.03 μM or 0.1 μM of pemafibrate, or a medium to which DMSO was added as a control. Cells were collected additional 24 hours after the medium replacement.
Total RNA was extracted from the collected cells using RNeasy Mini kit (Qiagen). Reverse transcription of the total RNA was performed using GeneAce cDNA Synthesis Kit (FUJIFILM Wako Pure Chemical Corporation). THUNDERBIRD (trade name) SYBR qPCR Mix (Toyobo) was used to perform qRT-PCR by ABI7500 Real Time PCR system (Thermo Fisher Scientific). Relative gene expression was calculated by a ΔCt method and normalized with Gapdh. The following primers were used.

[8] = prophylaxis: pemafibrate 0.3 mg/kg/day oral 2 weeks, then MK-801 2 weeks, group (4)
[9] = schizophrenic model (MK-801(+)), pemafibrate 0.3 mg/kg/day oral 1 week, FIG. 8

C[C@]12N[C@H](Cc3ccccc31)c1ccccc12 [MK-801]
NORT dwell time, new object vs familiar object ([1]; MK-801 0.2 mg/kg/day i.p. 2 weeks, no pemafibrate, FIG. 5): no significant difference | spine density compared with healthy model (saline) ([2]; MK-801 0.2 mg/kg/day i.p. 2 weeks, no pemafibrate, FIG. 7): significantly reduced

CC[C@@H](Oc1cccc(CN(CCCOc2ccc(OC)cc2)c2nc3ccccc3o2)c1)C(=O)O [pemafibrate]
NORT dwell time around new object compared with familiar object ([1]; healthy model (MK-801(-)), pemafibrate 0.3 mg/kg/day oral 1 week, FIG. 6): significantly longer | NORT dwell time around new object compared with familiar object ([1]; schizophrenic model (MK-801(+)), pemafibrate 0.3 mg/kg/day oral 1 week after MK-801, FIG. 6): significantly longer | effect on spine density of schizophrenic model ([3]; therapeutic: group (4) vs non-administration group (3), FIG. 10): restores the spine density | spine density compared with healthy models ([3]; therapeutic: schizophrenic model group (4), pemafibrate 0.3 mg/kg/day oral 1 week after MK-801, FIG. 10): no significant difference | decrease in spine density caused by MK-801 ([4]; prophylaxis: group (4) vs non-administration group (3)): suppressed | spine density compared with healthy models [4, 8]: no significant difference | NORT dwell time around new object compared with familiar object ([5]; prophylaxis: healthy models (saline), with pemafibrate): significantly longer | NORT dwell time around new object compared with familiar object [5, 8]: significantly longer | NORT dwell time around new object compared with familiar object ([6]; therapeutic: healthy models (saline), with pemafibrate): significantly longer | NORT dwell time around new object compared with familiar object ([6]; therapeutic: schizophrenic model group (4), pemafibrate 0.3 mg/kg/day oral 1 week after MK-801 2 weeks): significantly longer | expression of inflammatory cytokines (IL-1b, Tnfa) ([7]; FIG. 1): inhibits the expression | expression of anti-inflammatory cytokines (IL-4, IL-10) ([7]; FIG. 2): inhibits the expression | spine density compared with healthy model [2, 9]: no significant difference | spine density compared with pemafibrate non-administration group of schizophrenic model [2, 9]: significantly increased
